# Reference: article PMC10046961, “High-Throughput Screening Assay for Detecting Drug-Induced Changes in Synchronized Neuronal Oscillations and Potential Seizure Risk Based on Ca^2+ Fluorescence Measurements in Human Induced Pluripotent Stem Cell (hiPSC)-Derived Neuronal 2D and 3D Cultures” (Cells, 2023)
# Read-outs that look alike come from different tables or passages of the source. Marks after values point to notes of the source that are not given here.
# Columns and labels:
# [1] = test system: hiPSC-derived neurons co-cultured with human primary astrocytes in 2D; assay: Ca2+ transient oscillation assay (FDSS), 2D co-culture; format: cell-based; settings: for effect on peak number / Ca2+ neuronal oscillations, in words: 2D format; for activation at 0.11 µM / activation at 0.33 µM / activation at 1 µM / activation at 3 µM / activation at 0.37 µM / activation at 1.11 µM / activation at 3.33 µM / activation at 10 µM: Homo sapiens, 1 h; for activation at 0.11 µM / activation at 0.33 µM / activation at 1 µM / activation at 3 µM / Area under the curve - 2D Mean / Peak Number—2D Mean / Peak amplitude - 2D Mean / Peak width - 2D Mean / Peak-to-peak interval - 2D Mean / activation at 0.37 µM / activation at 1.11 µM / activation at 3.33 µM / activation at 10 µM: 60 min
# How it was run: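 Cultures were 10,000 CW50065 hiPSC excitatory neurons plus 2500 primary human astrocytes per well. Recordings used Cal-520 dye in HBSS/HEPES/glucose at 37 °C, with a 470/540 nm read at 2 Hz. Oscillations were stabilized with 0.04% DMSO, read for 20 min, then read again 60 min after compound addition (final DMSO 0.1%).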
# [2] = test system: hiPSC-derived neurons co-cultured with human primary astrocytes in 3D; assay: Ca2+ transient oscillation assay (FDSS), 3D spheroids; format: cell-based; settings: for Area under the curve - 3D Mean / Peak Number—3D Mean / Peak amplitude - 3D Mean / Peak width - 3D Mean / Peak-to-peak interval - 3D Mean: 60 min; for effect on peak number of oscillations, in words: 3D-cultured
# How it was run: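 Fura-2 fluorescence was read twice for 20 min each: a baseline 10 min after 0.04% DMSO, and again 60 min after compound addition at nominal final concentration. The 3D co-cultures (1:1 hiPSC neurons from a donor and human astrocytes, 8000 each) matured 5 weeks in BrainPhys medium after a 1-week differentiation.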
# [3] = ref PharmaPendium, cited from earlier work
# [4] = read-out: Area under the curve - 2D Mean
# [5] = read-out: Peak amplitude - 2D Mean
# [6] = read-out: Peak-to-peak interval - 2D Mean
# [7] = Table 1, peak plasma concentration in men, free therapeutic Cmax
# [8] = Table 2, highest plasma concentration in humans after the therapeutic dose
# [9] = concentration printed with the symbol
smiles,measurement,setting,value
"NCCCC(=O)O [GABA, gamma-aminobutyric acid]","effect on peak number / Ca2+ neuronal oscillations, in words",[1],significantly reduced peak number
same,activation at 0.11 µM,[1]; [4],23.1%
same,activation at 0.11 µM,[1]; read-out: Peak Number—2D Mean,-1.6%
same,activation at 0.11 µM,[1]; [5],9.1%
same,activation at 0.11 µM,[1]; read-out: Peak width - 2D Mean,13.2%
same,activation at 0.11 µM,[1]; [6],-12.3%
same,activation at 0.33 µM,[1]; [4],21.1%
same,activation at 0.33 µM,[1]; read-out: Peak Number—2D Mean,-4.4%
same,activation at 0.33 µM,[1]; [5],5.7%
same,activation at 0.33 µM,[1]; read-out: Peak width - 2D Mean,15.4%
same,activation at 0.33 µM,[1]; [6],29.1%
same,activation at 1 µM,[1]; [4],16.4%
same,activation at 1 µM,[1]; read-out: Peak Number—2D Mean,-12.4%
same,activation at 1 µM,[1]; [5],-1.4%
same,activation at 1 µM,[1]; read-out: Peak width - 2D Mean,11.7%
same,activation at 1 µM,[1]; [6],32%
same,activation at 3 µM,[1]; [4],14.9%
same,activation at 3 µM,[1]; read-out: Peak Number—2D Mean,-36.5%
same,activation at 3 µM,[1]; [5],-2.7%
same,activation at 3 µM,[1]; read-out: Peak width - 2D Mean,8.5%
same,activation at 3 µM,[1]; [6],-26.3%
same,Area under the curve - 3D Mean,[2]; 0.11 µM,111.5 % change from baseline
same,Peak Number—3D Mean,[2]; 0.11 µM,5.0 % change from baseline
same,Peak amplitude - 3D Mean,[2]; 0.11 µM,87.8 % change from baseline
same,Peak width - 3D Mean,[2]; 0.11 µM,7.6 % change from baseline
same,Peak-to-peak interval - 3D Mean,[2]; 0.11 µM,0.2 % change from baseline
same,Area under the curve - 3D Mean,[2]; 0.33 µM,116.2 % change from baseline
same,Peak Number—3D Mean,[2]; 0.33 µM,−1.8 % change from baseline
same,Peak amplitude - 3D Mean,[2]; 0.33 µM,112.0 % change from baseline
same,Peak width - 3D Mean,[2]; 0.33 µM,0.5 % change from baseline
same,Peak-to-peak interval - 3D Mean,[2]; 0.33 µM,−2.1 % change from baseline
same,Area under the curve - 3D Mean,[2]; 1 µM,97.0 % change from baseline
same,Peak Number—3D Mean,[2]; 1 µM,−0.6 % change from baseline
same,Peak amplitude - 3D Mean,[2]; 1 µM,90.5 % change from baseline
same,Peak width - 3D Mean,[2]; 1 µM,−2.7 % change from baseline
same,Peak-to-peak interval - 3D Mean,[2]; 1 µM,8.3 % change from baseline
same,Area under the curve - 3D Mean,[2]; 3 µM,118.7 % change from baseline
same,Peak Number—3D Mean,[2]; 3 µM,2.2 % change from baseline
same,Peak amplitude - 3D Mean,[2]; 3 µM,110.9 % change from baseline
same,Peak width - 3D Mean,[2]; 3 µM,0.7 % change from baseline
same,Peak-to-peak interval - 3D Mean,[2]; 3 µM,−2.5 % change from baseline
same,Free Cmax,[3]; [7],~1000 nM
same,Free Cmax,[3]; [8],~1000 nM
N[C@@H](CCC(=O)O)C(=O)O [Glutamate],Area under the curve - 2D Mean,[1]; 1.11 µM,5.8 % change from baseline
same,Peak Number—2D Mean,[1]; 1.11 µM,−9.3 % change from baseline
same,Peak amplitude - 2D Mean,[1]; 1.11 µM,−8.5 % change from baseline
same,Peak width - 2D Mean,[1]; 1.11 µM,−3.4 % change from baseline
same,Peak-to-peak interval - 2D Mean,[1]; 1.11 µM,−2.2 % change from baseline
same,Area under the curve - 2D Mean,[1]; 3.33 µM,−13.0 % change from baseline
same,Peak Number—2D Mean,[1]; 3.33 µM,−8.9 * % change from baseline
same,Peak amplitude - 2D Mean,[1]; 3.33 µM,−26.9 % change from baseline
same,Peak width - 2D Mean,[1]; 3.33 µM,−5.2 % change from baseline
same,Peak-to-peak interval - 2D Mean,[1]; 3.33 µM,−17.4 % change from baseline
same,Area under the curve - 2D Mean,[1]; 10 µM,−72.1 % change from baseline
same,Peak Number—2D Mean,[1]; 10 µM,−60.3 * % change from baseline
same,Peak amplitude - 2D Mean,[1]; 10 µM,−60.9 % change from baseline
same,Peak width - 2D Mean,[1]; 10 µM,−67.3 % change from baseline
same,Peak-to-peak interval - 2D Mean,[1]; 10 µM,96.3 % change from baseline
same,Area under the curve - 2D Mean,[1]; 30 µM,−100.0 % change from baseline
same,Peak Number—2D Mean,[1]; 30 µM,−100.0 * % change from baseline
same,Peak amplitude - 2D Mean,[1]; 30 µM,−100.0 % change from baseline
same,Peak width - 2D Mean,[1]; 30 µM,−100.0 % change from baseline
same,Peak-to-peak interval - 2D Mean,[1]; 30 µM,−100.0 % change from baseline
same,"effect on peak number / Ca2+ neuronal oscillations, in words",[1],significantly reduced peak number
same,"Ca²⁺ Transient Peak Number (2D), concentration in parentheses",[1]; [9],1 µM
same,Area under the curve - 3D Mean,[2]; 1.11 µM,116.3 % change from baseline
same,Peak Number—3D Mean,[2]; 1.11 µM,−7.0 % change from baseline
same,Peak amplitude - 3D Mean,[2]; 1.11 µM,85.4 % change from baseline
same,Peak width - 3D Mean,[2]; 1.11 µM,12.5 % change from baseline
same,Peak-to-peak interval - 3D Mean,[2]; 1.11 µM,11.6 % change from baseline
same,Area under the curve - 3D Mean,[2]; 3.33 µM,129.9 % change from baseline
same,Peak Number—3D Mean,[2]; 3.33 µM,12.3 % change from baseline
same,Peak amplitude - 3D Mean,[2]; 3.33 µM,108.3 % change from baseline
same,Peak width - 3D Mean,[2]; 3.33 µM,8.6 % change from baseline
same,Peak-to-peak interval - 3D Mean,[2]; 3.33 µM,3.1 % change from baseline
same,Area under the curve - 3D Mean,[2]; 10 µM,128.0 % change from baseline
same,Peak Number—3D Mean,[2]; 10 µM,20.0 % change from baseline
same,Peak amplitude - 3D Mean,[2]; 10 µM,103.9 % change from baseline
same,Peak width - 3D Mean,[2]; 10 µM,8.1 % change from baseline
same,Peak-to-peak interval - 3D Mean,[2]; 10 µM,0.4 % change from baseline
same,Area under the curve - 3D Mean,[2]; 30 µM,116.3 % change from baseline
same,Peak Number—3D Mean,[2]; 30 µM,8.4 % change from baseline
same,Peak amplitude - 3D Mean,[2]; 30 µM,107.0 % change from baseline
same,Peak width - 3D Mean,[2]; 30 µM,2.8 % change from baseline
same,Peak-to-peak interval - 3D Mean,[2]; 30 µM,−1.6 % change from baseline
same,"effect on peak number of oscillations, in words",[2],did not significantly change the peak number
same,"Ca²⁺ Transient Peak Number (3D), concentration in parentheses",[2]; [9],30 µM
same,Free Cmax,[3]; [7],1000 to 2000 nM
same,Free Cmax,[3]; [8],1000 to 2000 nM
CNCCCC12CCC(c3ccccc31)c1ccccc12 [Maprotiline],"effect on peak number / Ca2+ neuronal oscillations, in words",[1],significantly reduced peak number
same,activation at 0.37 µM,[1]; [4],12.2%
same,activation at 0.37 µM,[1]; read-out: Peak Number—2D Mean,-0.7%
same,activation at 0.37 µM,[1]; [5],8.3%
same,activation at 0.37 µM,[1]; read-out: Peak width - 2D Mean,4.5%
same,activation at 0.37 µM,[1]; [6],1.8%
same,activation at 1.11 µM,"[1]; 1.11 µM, read-out: Area under the curve - 2D Mean",-55.2%
same,activation at 1.11 µM,"[1]; 1.11 µM, read-out: Peak Number—2D Mean",0.5%
same,activation at 1.11 µM,"[1]; 1.11 µM, read-out: Peak amplitude - 2D Mean",-19.8%
same,activation at 1.11 µM,"[1]; 1.11 µM, read-out: Peak width - 2D Mean",-57.2%
same,activation at 1.11 µM,"[1]; 1.11 µM, read-out: Peak-to-peak interval - 2D Mean",11.7%
same,activation at 3.33 µM,"[1]; 3.33 µM, read-out: Area under the curve - 2D Mean",-100%
same,activation at 3.33 µM,"[1]; 3.33 µM, read-out: Peak Number—2D Mean",-100%
same,activation at 3.33 µM,"[1]; 3.33 µM, read-out: Peak amplitude - 2D Mean",-100%
same,activation at 3.33 µM,"[1]; 3.33 µM, read-out: Peak width - 2D Mean",-100%
same,activation at 3.33 µM,"[1]; 3.33 µM, read-out: Peak-to-peak interval - 2D Mean",-100%
same,activation at 10 µM,"[1]; 10 µM, read-out: Area under the curve - 2D Mean",-100%
same,activation at 10 µM,"[1]; 10 µM, read-out: Peak Number—2D Mean",-100%
same,activation at 10 µM,"[1]; 10 µM, read-out: Peak amplitude - 2D Mean",-100%
same,activation at 10 µM,"[1]; 10 µM, read-out: Peak width - 2D Mean",-100%
same,activation at 10 µM,"[1]; 10 µM, read-out: Peak-to-peak interval - 2D Mean",-100%
same,Area under the curve - 3D Mean,[2]; 0.37 µM,139.7 % change from baseline
same,Peak Number—3D Mean,[2]; 0.37 µM,−16.5 % change from baseline
same,Peak amplitude - 3D Mean,[2]; 0.37 µM,116.3 % change from baseline
same,Peak width - 3D Mean,[2]; 0.37 µM,6.2 % change from baseline
same,Peak-to-peak interval - 3D Mean,[2]; 0.37 µM,6.2 % change from baseline
same,Area under the curve - 3D Mean,[2]; 1.11 µM,133.4 % change from baseline
same,Peak Number—3D Mean,[2]; 1.11 µM,−8.2 % change from baseline
same,Peak amplitude - 3D Mean,[2]; 1.11 µM,131.3 % change from baseline
same,Peak width - 3D Mean,[2]; 1.11 µM,−1.0 % change from baseline
same,Peak-to-peak interval - 3D Mean,[2]; 1.11 µM,8.4 % change from baseline
same,Area under the curve - 3D Mean,[2]; 3.33 µM,123.1 % change from baseline
same,Peak Number—3D Mean,[2]; 3.33 µM,−7.9 % change from baseline
same,Peak amplitude - 3D Mean,[2]; 3.33 µM,130.1 % change from baseline
same,Peak width - 3D Mean,[2]; 3.33 µM,−3.2 % change from baseline
same,Peak-to-peak interval - 3D Mean,[2]; 3.33 µM,10.6 % change from baseline
same,Area under the curve - 3D Mean,[2]; 10 µM,11.9 % change from baseline
same,Peak Number—3D Mean,[2]; 10 µM,1.9 % change from baseline
same,Peak amplitude - 3D Mean,[2]; 10 µM,72.2 % change from baseline
same,Peak width - 3D Mean,[2]; 10 µM,−40.8 % change from baseline
same,Peak-to-peak interval - 3D Mean,[2]; 10 µM,−4.1 % change from baseline
same,"effect on peak number of oscillations, in words",[2],did not significantly change the peak number
same,Free Cmax,[3]; [7],60 nM
same,Free Cmax,[3]; [8],60 nM
